Experiments:
[1] = system: flowering Arabidopsis thaliana plants; assay: visual fluorescent pollen transgene assay, crossover frequency in interval I5d (chromosome 5); assay type: in vivo; details: 10% DMSO and 0.01% Silwet; for genetic map distance: p-value 0.000
Description: An aqueous solution of 3-aminobutanoic acid was applied to flowering Arabidopsis thaliana plants to enhance the frequency of meiotic recombination (crossovers). Silwet, a spraying adjuvant, was added to the 3-aminobutanoic acid solution at a volume/volume concentration of 0.01%. The solution was applied to the plants by foliar spraying until the plants were drenched. Several concentrations of 3-aminobutanoic acid were used including 0.1, 1, 7.5, 10, 12.5 and 15 mM. As a control, other plants (i.e., control plants) were treated with an aqueous 0.01% solution of Silwet by foliar spraying the solution on the plants until the plants were drenched.
(§1) Crossover frequencies were measured in pollen from treated and control plants using a visual fluorescent pollen transgene assay as described in Francis et al., Proc Natl Acad Sci USA. 2007; 104 (10): 3913-3918. In this assay pollen tetrads are scored as Parental Ditype (PD), Nonparental Ditype (NPD) or Tetratype (TT) and the frequency of those tetrad classes are used to calculate a genetic map distances in centiMorgans (cM) between reporter genes expressing fluorescent proteins. The genetic map distances between a pair of markers on chromosome 5 were compared between control plants and treated plants. The genetic interval between the two markers was designated as I5d. […] In Table 2, each experimental treatment is paired with data from control plants that were treated and scored together and designated with an experiment number in the first column.
An aqueous solution phenethyl isothiocyanate (IUPAC name: 2-isothiocyanatoethylbenzene) was applied to flowering Arabidopsis thaliana plants to enhance the frequency of meiotic recombination (crossovers). Phenethyl isothiocyanate in an aqueous solution containing 10% DMSO and 0.01% Silwet was applied by foliar spray until the plants were drenched. The phenethyl isothiocyanate was first dissolved in 100% DMSO and then diluted to its final concentration with 0.0.1% Silwet in water. Several concentrations of phenethyl isothiocyanate were used including 7.5, 10, and 12.5 mM. Control plants were treated with an aqueous solution of 10% DMSO and 0.01% Silwet by foliar spraying the solution on the control plants until the control plants were drenched.
as §1, with “4,” for “2,”
An aqueous solution BIX-01294 (IUPAC name: N-(1-benzylpiperidin-4-yl)-6,7-dimethoxy-2-(4-methyl-1,4-diazepan-1-yl) quinazolin-4-amine) was applied to flowering Arabidopsis thaliana plants to enhance the frequency of meiotic recombination (crossovers). BIX-01294 in an aqueous solution containing 10% DMSO and 0.01% Silwet was applied by foliar spray until the plants were drenched. The BIX-01294 was first dissolved in 100% DMSO and then diluted to its final concentration with 0.0.1% Silwet in water. Several concentrations of […] were used including 0.5, 1, 2.5 and 5 mM. Control plants were treated with an aqueous solution of 10% DMSO and 0.01% Silwet by foliar spraying the solution on the control plants until the control plants were drenched. […]

[2] = system: rice (Kitaake x Nipponbare F1 plants); assay: meiotic recombination in rice F1 plants, recombinant reads in sequenced pollen DNA; assay type: in vivo, Oryza sativa subspecies japonica; details: 7.5 mM whole-plant spray at panicle stage, 10% DMSO and 0.01% Silwet; pollen harvested after 5-7 days
Source text: Meiotic recombination was stimulated in rice by external application of phenethyl isothiocyanate (IUPAC name: 2-isothiocyanatoethylbenzene). First, two parental rice lines, “Oryza sativa subspecies japonica variety Kitaake” (“Kitaake” hereafter) and “Oryza sativa subspecies japonica variety Nipponbare” (“Nipponbare” hereafter) were manually crossed to produce F1 seeds. F1 seeds were germinated and grown to produce F1 plants. PCR was used to genotype the F1 plants and confirm their heterozygosity. When F1 plants produced panicles (inflorescences) they were treated by spraying the whole plant, until saturation, with 7.5 mM phenethyl isothiocyanate in an aqueous solution containing 10% DMSO and 0.01% Silwet. The phenethyl isothiocyanate was first dissolved in 100% DMSO and then diluted to its final concentration with 0.0.1% Silwet in water. Control plants were mock-treated with 10% DMSO and 0.01% Silwet. […] Reads that spanned at least two parental SNPs were selected and binned into those that contained SNPs of only the Kitaake type (non-recombinant), only the Nipponbare type (non-recombinant) or both Kitaake and Nipponbare type (recombinant). The frequency of recombinant reads from treated and untreated plants were compared to detect an increase in meiotic recombination resulting from treatment with phenethyl isothiocyanate.

Structure (SMILES): S=C=NCCc1ccccc1 [phenethyl isothiocyanate, 2-isothiocyanatoethylbenzene]
- NPD (Nonparental Ditype pollen tetrads) ([1]; 7.5 mM foliar spray, Exp.(2)): 2
- PD (Parental Ditype pollen tetrads) ([1]; 7.5 mM foliar spray, Exp.(2)): 978
- TT (Tetratype pollen tetrads) ([1]; 7.5 mM foliar spray, Exp.(2)): 211
- genetic map distance ([1]; 7.5 mM foliar spray, Exp.(2), DMSO control 5.90 cM): 9.36 cM
- NPD (Nonparental Ditype pollen tetrads) ([1]; 10 mM foliar spray, Exp.(1)): 0
- PD (Parental Ditype pollen tetrads) ([1]; 10 mM foliar spray, Exp.(1)): 1840
- TT (Tetratype pollen tetrads) ([1]; 10 mM foliar spray, Exp.(1)): 370
- genetic map distance ([1]; 10 mM foliar spray, Exp.(1), DMSO control 5.77 cM): 8.37 cM
- NPD (Nonparental Ditype pollen tetrads) ([1]; 12.5 mM foliar spray, Exp.(2)): 0
- PD (Parental Ditype pollen tetrads) ([1]; 12.5 mM foliar spray, Exp.(2)): 868
- TT (Tetratype pollen tetrads) ([1]; 12.5 mM foliar spray, Exp.(2)): 200
- genetic map distance ([1]; 12.5 mM foliar spray, Exp.(2), DMSO control 5.90 cM): 9.36 cM
- meiotic recombination in treated plants compared to controls ([1]; all concentrations (7.5, 10, 12.5 mM)): increase meiotic recombination
- meiotic recombination in rice [2]: stimulated
